# Assay results taken from patent publication US20210077382A1, “COMPOSITIONS, DEVICES, AND METHODS FOR THE TREATMENT OF OPIOID-RECEPTOR-MEDIATED CONDITIONS” (Opiant Phamaceuticals, Inc., priority 2016, published 2021).
# Columns and labels:
# [1] = same conditions as naltrexone; cited from earlier work
# [2] = Clinical pharmacokinetic crossover study of IN, IM and oral naltrexone; plasma naltrexone and 6β-naltrexol by LC-MS/MS; settings: 4 mg IN; 5 minutes postdose
# Source text: Study Goals. […] Secondary endpoints included adverse events (AEs), vital signs (heart rate, sitting blood pressure, and respiration rate), electrocardiogram (ECG), clinical laboratory changes and nasal irritation using the nasal irritation scale.
# Study design. […] This was an in-patient open-label, crossover study involving approximately 14 healthy volunteers. […] Subjects stayed in the in-patient facility for 13 days to complete the entire study. Subjects were called 3 to 5 days after discharge to inquire concerning AEs and concomitant medications since discharge. Informed consent was obtained from all subjects, and all were screened for eligibility to participate in the study, including medical history, physical examination, clinical chemistry, coagulation markers, hematology, infectious disease serology, urinalysis, urine drug and alcohol toxicology screen, vital signs and ECG.
# On days of study drug administration, a 12-lead ECG was performed approximately 1 hour prior to dosing and at approximately 1 and 4 hours post-dose. Vital signs were measured pre-dose and about 1 and 4 hours post-dose.
# Study Drugs and Dosing. […] The IN (40 mg/mL) formulations were made by the staff pharmacist at Vince & Associates; the vehicle for the IN formulations was sterile water for injection. The IM formulation (2 mg/mL) was made by the staff pharmacist at Vince & Associates; the vehicle was sterile saline for injection.
# Subjects stayed in the in-patient facility for 13 days to complete the entire study and were discharged 2 days after the fourth dose.
# PK Assessments. […] Plasma was separated from whole blood and stored frozen at […] until assayed.
# Analysis. […] Dose-adjusted values for AUCs and Cmax were calculated. The relative extent of IN and PO absorption (IN and PO versus IM) will be estimated from the dose-corrected AUCs.
# [3] = Safety assessments (adverse events, vital signs, ECG, nasal irritation) in the clinical study; format: in vivo, human
# Description: On dosing days, the order of assessments was ECG, vital signs, then PK blood collection when scheduled at the same nominal times. The target time of the PK blood collection was considered the most critical and if the collection was more than ±1 minute from the scheduled time for the first 60 minutes of collections or more than ±5 minutes for the scheduled time points thereafter, this was considered a protocol deviation. ECG and vital signs were collected within the 10-minute period before the nominal time of blood collections. At screening, admission, and discharge, ECG, and vital signs were checked once per day. […] Clinical laboratory measurements were repeated after the last PK blood draw prior to clinic discharge. AEs were assessed by spontaneous reports by subjects, by examination of the nasal mucosa, by measuring vital signs, ECG, and clinical laboratory parameters.
# Safety Assessments. […] ECG and vital signs were performed within the 10-minute period before the nominal time for post-dose blood collections. Adverse events (AEs) were recorded from the start of study drug administration until clinic discharge.
# [4] = reported to be as low as; Gonzalez and Brogden 1988; cited from earlier work
# [5] = intranasal formulation with […] Intravail; cited from earlier work
smiles,measurement,setting,value
"C=C1CC[C@@]2(O)[C@H]3Cc4ccc(O)c5c4[C@@]2(CCN3CC2CC2)[C@H]1O5 [nalmefene, 17-cyclopropylmethyl-4,5α-epoxy-6-methylenemorphinan-3,14-diol]",Change of AUC when an alkylsaccharide is added to the intranasal formulation,[1],do not have increased AUC
"O=C1CC[C@@]2(O)[C@H]3Cc4ccc(O)c5c4[C@@]2(CCN3CC2CC2)[C@H]1O5 [naltrexone, 17-(cyclopropylmethyl)-4,5a-epoxy-3,14-dihydroxymorphinan-6-one]",Difference of mean naltrexone concentrations with and without Intravail,[2],8 fold
same,Subjects with dizziness (most frequent AE regardless of severity or attribution),[3]; 5 subjects of 14,36%
same,Subjects with AEs of the Nervous System Disorders SOC (most frequent AEs),[3]; 7 subjects of 14,50%
same,Severe AEs,[3]; all dosing periods,No severe AEs were observed
same,Moderate AEs,"[3]; dizziness after the first dose (4 mg IN), considered related to the study agent",one
same,Subjects discontinued from the study due to AEs,"[3]; hypertension, syncope, out-of-range pre-dose vital signs",Three
same,Treatment-related unexpected AE,[3]; mild syncope after the Day 1 dose (4 mg IN),one
same,Subjects who experienced at least one AE,"[3]; safety population, 10 of 14 subjects, any dosing period, any relationship to drug",71%
same,Subjects who experienced unexpected AEs,[3]; two UAEs considered unrelated to the study agent,Three
same,Oral bioavailability,[4],5%
CNS(=O)(=O)Cc1ccc2[nH]cc(CCN(C)C)c2c1 [sumatriptan],Increase of maximum plasma concentration in comparison to Imitrex nasal spray,[5],almost four-fold
same,Increase of total exposure (AUC),[5],32%
same,Tmax,[5],8 to 10 min
